Measured values as given in US20230255953A1, “USE OF ROLUPERIDONE IN PREVENTING RELAPSE IN SCHIZOPHRENIA PATIENTS” (Minerva Neurosciences, Inc., priority 2022, published 2023).

System: patients with negative symptoms of schizophrenia
Experiment: Study #2 (MIN-101C07) Phase 3: PANSS-derived scores (NSFS, total, subscales, Marder factors)
Assay type: in vivo, human
Design: key to Change from Baseline LS Mean: NSFS (ITT) / Change from Baseline LS Mean: NSFS (mITT): NSFS total ranges 7 to 49; higher = more severe
Details: for Change from Baseline LS Mean: Marder's Anxiety/Depression Factor Score / Change from Baseline LS Mean: Marder's Disorganized Thought Factor Score / Change from Baseline LS Mean: Marder's Positive Symptoms Factor Score / Change from Baseline LS Mean: Marder's Uncontrolled Hostility/Excitement Factor Score / Change from Baseline LS Mean: NSFS (ITT) / Change from Baseline LS Mean: NSFS Emotional Experience Score / Change from Baseline LS Mean: NSFS Emotional Expression Score / Change from Baseline LS Mean: PANSS General Psychopathology Subscale / Change from Baseline LS Mean: PANSS Negative Symptoms Subscale / Change from Baseline LS Mean: PANSS Positive Symptoms Subscale / Change from Baseline LS Mean: PANSS Total Score / Effect Size (Cohen's d) vs Placebo: Marder's Anxiety/Depression Factor Score / Effect Size (Cohen's d) vs Placebo: Marder's Disorganized Thought Factor Score / Effect Size (Cohen's d) vs Placebo: Marder's Positive Symptoms Factor Score / Effect Size (Cohen's d) vs Placebo: Marder's Uncontrolled Hostility/Excitement Factor Score / Effect Size (Cohen's d) vs Placebo: NSFS (ITT) / Effect Size (Cohen's d) vs Placebo: NSFS Emotional Experience Score / Effect Size (Cohen's d) vs Placebo: NSFS Emotional Expression Score / Effect Size (Cohen's d) vs Placebo: PANSS General Psychopathology Subscale / Effect Size (Cohen's d) vs Placebo: PANSS Negative Symptoms Subscale / Effect Size (Cohen's d) vs Placebo: PANSS Positive Symptoms Subscale / Effect Size (Cohen's d) vs Placebo: PANSS Total Score / Effect size, change from Baseline in NSFS to Week 12: ITT; for Effect size, change from Baseline in NSFS to Week 12: 64 mg
Source text: “PANSS”, as used herein, refers to the positive and negative syndrome scale, which is used by physicians and clinicians to measure the severity of the symptoms in a schizophrenia patient. The scale is divided into three parts, a positive scale, which provides a “PANSS positive subscore”, a negative scale, which provides a “PANSS negative subscore”, and general psychopathology scale. The sum of these three parts provides a PANSS total score, which ranges from 30 to 210 (where higher scores indicate more severe symptoms). (Kay, S. R., et al. “The positive and negative syndrome scale (PANSS) for schizophrenia,” Schizophr Bulletin, 13(2), 261-276 (1987)).
As used herein, PANSS Marder's negative symptoms factor score (“NSFS”), refers to selection of seven of the PANSS items used by physicians and clinicians to measure the severity of the negative symptoms in a schizophrenia patient. (See Tables 5A and 5B.) The NSFS total score ranges from 7 to 49. (Marder, S. R. et al. “The effects of risperidone on the five dimensions of schizophrenia derived by factor analysis: combined results of the North American trials,” J Clin Psychiatry. 1997; 58:538-46.)
The PANSS was designed to be used in patients with schizophrenia to measure the overall severity of schizophrenic symptoms. The scale has been validated in different cultures and languages and is reliable and acceptable to regulatory health authorities as a primary scale to determine efficacy of intervention in schizophrenia. The name refers to the 2 types of symptoms in schizophrenia, as defined by the American Psychiatric Association: positive symptoms, which refer to an excess or distortion of normal functions (e.g., hallucinations and delusions), and negative symptoms, which represent a diminution or loss of normal functions.
The patient is rated from 1 to 7 on 30 different symptoms based on the interview as well as reports of family members or primary care hospital workers. The original PANSS included 3 groups of symptoms and subscale scores Positive, Negative, and General Psychopathology. Since the inception of PANSS, investigators have proposed additional grouping (structures) of PANSS such as the Marder structure (Marder, S. R. et al. “Issues and perspectives in designing clinical trials for negative symptoms in schizophrenia: consensus statements,” Schizophrenia Bulletin Open. 2020; 1(1). doi:10.1093/schizbullopen/sgz001) and the White structure (White, L. et al. “Empirical assessment of the factorial structure of clinical symptoms in schizophrenia”. Psychopathology. 1997; 30263-274).
The PANSS was assessed at the time points described in Table 4.
The PANSS-derived endpoints used in these studies and the integrated analyses are described in Table 5A and a summary of the individual PANSS items used by physicians and clinicians to measure the severity of the symptoms in a schizophrenia patient is provided in Table 5B. The scale is divided into three parts, a positive scale, which provides a “PANSS positive subscore”, a negative scale, which provides a “PANSS negative subscore”, and general psychopathology scale. The sum of these three parts provides a PANSS total score, which ranges from 30 to 210 (where higher scores indicate more severe symptoms). (See Kay, S. R., et al. “The positive and negative syndrome scale (PANSS) for schizophrenia,” Schizophr Bulletin, 13(2), 261-276 (1987) and Gopal, S., et al. “Improvement of Negative Symptoms in Schizophrenia with Paliperidone Palmitate 1-Month and 3-Month Long-Acting Injectables: Results from a Phase 3 Non-Inferiority Study” Neuropsychiatric Disease and Treatment, 681-690, DOI: 10.2147/NDT.5226296, both of which are incorporated by reference.)
Study #2 (also referred to as “MIN101C07”) was a Phase 3, randomized, DB, placebo-controlled, parallel-group 12-week study to evaluate the efficacy and safety of Roluperidone in patients ≥18 years to ≤55 years with negative symptoms of schizophrenia, followed by a 40-week OL extension. […]

Substance: 1H-Isoindol-1-one,2-[ [1-[2-(4-fluorophenyl)-2-oxoethyl]-4-piperidinyl]methyl]-2,3-dihydro-, hydrochloride, hydrate (1:1:2) [Roluperidone]
- Effect Size (Cohen's w) vs Placebo: 20% reduction in NSFS responders (32 mg QD, Week 12 DB): 0.05
- Effect Size (Cohen's w) vs Placebo: 30% reduction in NSFS responders (32 mg QD, Week 12 DB): 0.04
- Number of Patients with 20% reduction in NSFS at Week 12 (32 mg QD, Week 12 DB): 32/116
- Number of Patients with 30% reduction in NSFS at Week 12 (32 mg QD, Week 12 DB): 14/116
- Patients with 20% reduction in NSFS at Week 12 (%) (32 mg QD, Week 12 DB): (28%)
- Patients with 30% reduction in NSFS at Week 12 (%) (32 mg QD, Week 12 DB): (12%)
- Change from Baseline LS Mean: Marder's Anxiety/Depression Factor Score (32 mg QD, Week 12 DB): −0.6
- Change from Baseline LS Mean: Marder's Disorganized Thought Factor Score (32 mg QD, Week 12 DB): −1.6
- Change from Baseline LS Mean: Marder's Positive Symptoms Factor Score (32 mg QD, Week 12 DB): −1.3
- Change from Baseline LS Mean: Marder's Uncontrolled Hostility/Excitement Factor Score (32 mg QD, Week 12 DB): 0.3
- Change from Baseline LS Mean: NSFS (ITT) (32 mg QD, Week 12 DB): −4.0
- Change from Baseline LS Mean: NSFS Emotional Experience Score (32 mg QD, Week 12 DB): −1.5
- Change from Baseline LS Mean: NSFS Emotional Expression Score (32 mg QD, Week 12 DB): −2.6
- Change from Baseline LS Mean: PANSS General Psychopathology Subscale (32 mg QD, Week 12 DB): −2.8
- Change from Baseline LS Mean: PANSS Negative Symptoms Subscale (32 mg QD, Week 12 DB): −4.2
- Change from Baseline LS Mean: PANSS Positive Symptoms Subscale (32 mg QD, Week 12 DB): −0.3
- Change from Baseline LS Mean: PANSS Total Score (32 mg QD, Week 12 DB): −7.1
- Effect Size (Cohen's d) vs Placebo: Marder's Anxiety/Depression Factor Score (32 mg QD, Week 12 DB): 0.05
- Effect Size (Cohen's d) vs Placebo: Marder's Disorganized Thought Factor Score (32 mg QD, Week 12 DB): 0.15
- Effect Size (Cohen's d) vs Placebo: Marder's Positive Symptoms Factor Score (32 mg QD, Week 12 DB): 0.14
- Effect Size (Cohen's d) vs Placebo: Marder's Uncontrolled Hostility/Excitement Factor Score (32 mg QD, Week 12 DB): −0.05
- Effect Size (Cohen's d) vs Placebo: NSFS (ITT) (32 mg QD, Week 12 DB): 0.13
- Effect Size (Cohen's d) vs Placebo: NSFS Emotional Experience Score (32 mg QD, Week 12 DB): 0.11
- Effect Size (Cohen's d) vs Placebo: NSFS Emotional Expression Score (32 mg QD, Week 12 DB): 0.17
- Effect Size (Cohen's d) vs Placebo: PANSS General Psychopathology Subscale (32 mg QD, Week 12 DB): 0.22
- Effect Size (Cohen's d) vs Placebo: PANSS Negative Symptoms Subscale (32 mg QD, Week 12 DB): 0.10
- Effect Size (Cohen's d) vs Placebo: PANSS Positive Symptoms Subscale (32 mg QD, Week 12 DB): 0.04
- Effect Size (Cohen's d) vs Placebo: PANSS Total Score (32 mg QD, Week 12 DB): 0.17
- Change from Baseline LS Mean: NSFS (mITT) (32 mg QD, Week 12 DB): −4.0
- Effect Size (Cohen's d) vs Placebo: NSFS (mITT) (32 mg QD, Week 12 DB): 0.13
- Effect Size (Cohen's w) vs Placebo: 20% reduction in NSFS responders (64 mg QD, Week 12 DB): 0.17
- Effect Size (Cohen's w) vs Placebo: 30% reduction in NSFS responders (64 mg QD, Week 12 DB): 0.09
- Number of Patients with 20% reduction in NSFS at Week 12 (64 mg QD, Week 12 DB): 48/122
- Number of Patients with 30% reduction in NSFS at Week 12 (64 mg QD, Week 12 DB): 24/122
- Change from Baseline LS Mean: Marder's Anxiety/Depression Factor Score (64 mg QD, Week 12 DB): −0.7
- Change from Baseline LS Mean: Marder's Disorganized Thought Factor Score (64 mg QD, Week 12 DB): −1.4
- Change from Baseline LS Mean: Marder's Positive Symptoms Factor Score (64 mg QD, Week 12 DB): −1.6
- Change from Baseline LS Mean: Marder's Uncontrolled Hostility/Excitement Factor Score (64 mg QD, Week 12 DB): 0.5
- Change from Baseline LS Mean: NSFS (ITT) (64 mg QD, Week 12 DB): −4.3
- Change from Baseline LS Mean: NSFS Emotional Experience Score (64 mg QD, Week 12 DB): −1.8
- Change from Baseline LS Mean: NSFS Emotional Expression Score (64 mg QD, Week 12 DB): −2.6
- Change from Baseline LS Mean: PANSS General Psychopathology Subscale (64 mg QD, Week 12 DB): −2.3
- Change from Baseline LS Mean: PANSS Negative Symptoms Subscale (64 mg QD, Week 12 DB): −4.7
- Change from Baseline LS Mean: PANSS Positive Symptoms Subscale (64 mg QD, Week 12 DB): −0.4
- Change from Baseline LS Mean: PANSS Total Score (64 mg QD, Week 12 DB): −7.4
- Effect Size (Cohen's d) vs Placebo: Marder's Anxiety/Depression Factor Score (64 mg QD, Week 12 DB): 0.09
- Effect Size (Cohen's d) vs Placebo: Marder's Disorganized Thought Factor Score (64 mg QD, Week 12 DB): 0.07
- Effect Size (Cohen's d) vs Placebo: Marder's Positive Symptoms Factor Score (64 mg QD, Week 12 DB): 0.24
- Effect Size (Cohen's d) vs Placebo: Marder's Uncontrolled Hostility/Excitement Factor Score (64 mg QD, Week 12 DB): −0.15
- Effect Size (Cohen's d) vs Placebo: NSFS (ITT) (64 mg QD, Week 12 DB): 0.21
- Effect Size (Cohen's d) vs Placebo: NSFS Emotional Experience Score (64 mg QD, Week 12 DB): 0.28
- Effect Size (Cohen's d) vs Placebo: NSFS Emotional Expression Score (64 mg QD, Week 12 DB): 0.17
- Effect Size (Cohen's d) vs Placebo: PANSS General Psychopathology Subscale (64 mg QD, Week 12 DB): 0.12
- Effect Size (Cohen's d) vs Placebo: PANSS Negative Symptoms Subscale (64 mg QD, Week 12 DB): 0.23
- Effect Size (Cohen's d) vs Placebo: PANSS Positive Symptoms Subscale (64 mg QD, Week 12 DB): 0.07
- Effect Size (Cohen's d) vs Placebo: PANSS Total Score (64 mg QD, Week 12 DB): 0.20
- Change from Baseline LS Mean: NSFS (mITT) (64 mg QD, Week 12 DB): −4.5
- Effect Size (Cohen's d) vs Placebo: NSFS (mITT) (64 mg QD, Week 12 DB): 0.26
- Effect size, change from Baseline in NSFS to Week 12 (US sites subgroup): 0.32
- Effect size, change from Baseline in NSFS to Week 12 (non-US sites subgroup): 0.20
- NSFS score, course in OL period (all treatment groups, OL period to Week 52): continued to improve
